Data taken from patent publication US6518316B1, “Cytokine production and tyrosine kinase inhibitors” (Xenova Limited, priority 1998, dated 2003).
Where two headings read alike, the source gives them in different places.

Tests used:
[1] = system: IL-2 production by Jurkat E6-1 cells; experiment: Cytokine (IL-2) release from PMA pre-treated, anti-CD28 stimulated Jurkat E6-1 cells (DELFIA); assay type: cell-based; conditions: for IC50: anti-CD28, 18 hours, read-out: IC50 for the inhibition of anti-CD28 induced IL-2 production by Jurkat E6-1 cells
Description: Jurkat E6-1 cell line was obtained from American Tissue Culture Collection (ATCC, Rockville, USA). The cells were pre-treated with 3 ng/ml phorbol myristate acetate (PMA) for three hours, washed and exposed to dose ranges of the compound to be tested followed by the addition of 5 μg/ml anti-CD28.
After 18 hours incubation at 37° C. and 5% CO2, cell culture supernatants were harvested for determination of IL-2 secretion by Dissociation Enhanced Lanthanide Fluorescence Immuno Assay (DELFIA). The effect of compound on cell cytotoxicity was determined using a redox potential sensitive dye, resazurin. Effects on protein synthesis were determined by investigation of [^3H] leucine uptake.

recombinant abl kinase = recombinant abl kinase (Homo sapiens, UniProt P00519); experiment: Inhibition of tyrosine kinase activity (abl kinase, LANCE time resolved fluorescence); assay type: biochemical; conditions: for IC50: abl kinase, peptide 6-20 p34cdc substrate
Source text: Phosphorylation of the peptide substrate was detected using a non-separation time resolved fluorescence assay (LANCE™) using anti-phosphotyrosine conjugated europium and streptavidin conjugated allophycocyanin (APC).

IL-2 = IL-2 release from PHA and LPS stimulated whole blood (DELFIA); assay type: cell-based; conditions: Homo sapiens
Description: (§1) Whole blood samples obtained from up to seven normal healthy volunteers were diluted in an equal volume of RPMI 1640 with 5% FBS and exposed to dose ranges of compound (Ia) followed by the addition of 10 μg/ml phytohaemagglutinin (PHA) and 100 ng/ml LPS. After incubation for 48 hours at 37° C. and 5% CO2 serum samples were harvested for determination of effect on IL-2 and TNF-α secretion using DELFIAs specific for each cytokine respectively.

T cells = experiment: Toxicity to T cells; assay type: cell-based, human; conditions: 0.06 to 7 μM
TNF-α = TNF-α release from PHA and LPS stimulated whole blood (DELFIA); assay type: cell-based; conditions: Homo sapiens
Description: as §1

[2] = system: IL2 production by T cells; experiment: Cytokine (IL-2) release from purified T cells stimulated with anti-CD3 and anti-CD28 (DELFIA); assay type: cell-based; conditions: Homo sapiens, T-cell
Source text: The effect of compound (Ia) on IL-2 release was investigated using a previously described method (Van Cool S. W. et al., (1993) J. Immunol. 150: 3254-3263). T cells were purified by depletion of B cells and monocytes from Buffy coats obtained from normal healthy donors following separation of human peripheral blood mononuclear cells (PBMC) on Lymphoprep. Purified T cells were suspended in RPMI 1640 supplemented with 5% fetal bovine serum (FBS) and aliquoted into 96 well plates coated with anti-CD3. Cells were exposed to dose ranges of the compound to be tested followed by the addition of 5 μg/ml anti-CD28 and incubated for 18 hours at 37° C. and 5% CO2. IL-2 secretion in cell culture supernatants was determined using IL-2 DELFIA.

[3] = system: TNF-α secretion by monocytes; experiment: Cytokine (TNF-α) release from LPS stimulated monocytes (DELFIA); assay type: cell-based; conditions: Homo sapiens, Monocyte
Description: The effect of compound (Ia) on TNF-α release was investigated using a previously described method (Bakouche, O. et al., (1992), J. Immunol: 14, 84-91). Human monocytes were purified by elutriation from Buffy coats obtained from normal healthy donors after the separation of peripheral blood mononuclear cells (PBMC) on Lymphoprep. The monocytes were suspended in RPMI 1640 with 5% FBS and exposed to dose ranges of the compound to be tested followed by the addition of 1 ng/ml LPS. After incubation for 18 hours at 37° C. and 5% CO2 cell culture supernatants were harvested and stored at −70° C. Effects on TNF-α release were determined using a DELFIA.

[4] = Homo sapiens, Jurkat E6.1, PMA pre-treated

Chain of recombinant abl kinase (P00519 whole entry): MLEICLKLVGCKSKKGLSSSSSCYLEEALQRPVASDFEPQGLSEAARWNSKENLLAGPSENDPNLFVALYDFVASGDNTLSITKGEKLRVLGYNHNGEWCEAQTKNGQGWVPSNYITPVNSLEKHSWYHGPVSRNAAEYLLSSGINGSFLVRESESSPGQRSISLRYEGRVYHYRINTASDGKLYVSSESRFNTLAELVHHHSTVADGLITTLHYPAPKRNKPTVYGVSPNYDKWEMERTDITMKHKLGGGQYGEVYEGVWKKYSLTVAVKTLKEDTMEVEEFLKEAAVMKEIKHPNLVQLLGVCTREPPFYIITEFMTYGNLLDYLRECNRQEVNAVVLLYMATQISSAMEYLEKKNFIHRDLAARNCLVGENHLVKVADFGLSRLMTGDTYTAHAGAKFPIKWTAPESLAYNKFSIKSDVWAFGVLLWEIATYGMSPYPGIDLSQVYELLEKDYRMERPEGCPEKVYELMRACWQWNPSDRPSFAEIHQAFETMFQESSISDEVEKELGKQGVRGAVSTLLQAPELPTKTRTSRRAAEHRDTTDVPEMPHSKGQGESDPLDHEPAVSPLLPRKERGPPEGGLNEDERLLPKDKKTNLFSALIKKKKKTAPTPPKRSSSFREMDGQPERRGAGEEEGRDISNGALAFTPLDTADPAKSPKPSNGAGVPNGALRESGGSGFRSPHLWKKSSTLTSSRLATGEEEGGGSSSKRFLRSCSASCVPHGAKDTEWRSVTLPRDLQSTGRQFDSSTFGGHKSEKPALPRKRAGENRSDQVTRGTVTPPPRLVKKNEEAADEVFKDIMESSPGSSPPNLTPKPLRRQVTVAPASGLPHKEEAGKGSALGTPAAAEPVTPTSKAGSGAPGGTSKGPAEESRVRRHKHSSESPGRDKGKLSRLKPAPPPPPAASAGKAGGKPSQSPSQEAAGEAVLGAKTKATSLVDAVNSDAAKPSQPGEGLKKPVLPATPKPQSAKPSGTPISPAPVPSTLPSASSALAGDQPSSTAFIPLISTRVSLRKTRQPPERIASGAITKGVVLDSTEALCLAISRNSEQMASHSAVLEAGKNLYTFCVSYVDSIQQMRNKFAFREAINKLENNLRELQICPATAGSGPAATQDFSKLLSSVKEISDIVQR

Molecule `CO[C@H]1[C@H](OC)c2c(O)cccc2C2=C3CCC(=O)c4c(O)ccc(c43)[C@@H]21` (relative stereo) [Compound 11a] has an IC50 [1, 4] greater than 6180 nM and an IC50 (recombinant abl kinase) of 2360 nM.

Work on `CO[C@@H]1[C@@H]2C(=C3CCC(=O)c4c(O)ccc2c43)c2cccc(O)c2[C@@H]1O` (relative stereo) [Compound (Ia)] yielded an IC50 (IL-2; Donor 1, read-out: IC50 Inhibition of IL-2) of 220 nM, an IC50 (IL-2; Donor 2, read-out: IC50 Inhibition of IL-2) of 1200 nM and an IC50 (IL-2; Donor 3, read-out: IC50 Inhibition of IL-2) of 430 nM. For the same molecule, the IC50 (IL-2; Donor 4, read-out: IC50 Inhibition of IL-2) was greater than 2700 nM, the IC50 (IL-2; Donor 5, read-out: IC50 Inhibition of IL-2) was less than 400 nM and the IC50 (IL-2; Donor 6, read-out: IC50 Inhibition of IL-2) was less than 400 nM. The “toxicity to T cells” value (T cells) was “not toxic”, the IC50 (TNF-α; Donor 1, read-out: IC50 Inhibition of TNF-α) was 14000 nM and the IC50 (TNF-α; Donor 2, read-out: IC50 Inhibition of TNF-α) was 14000 nM. For the same molecule, the IC50 (TNF-α; Donor 3, read-out: IC50 Inhibition of TNF-α) was 700 nM, the IC50 (TNF-α; Donor 4, read-out: IC50 Inhibition of TNF-α) was greater than 2700 nM and the IC50 (TNF-α; Donor 5, read-out: IC50 Inhibition of TNF-α) was 5300 nM. For the same molecule, the IC50 (TNF-α; Donor 6, read-out: IC50 Inhibition of TNF-α) was 3000 nM, the inhibition at 0.056 µM ([2]; 0.056 µM, read-out: % Inhibition of anti-CD-28 and Anti-CD3 induced IL-2 by T cells) was 29.8% and the inhibition at 0.11 µM ([2]; 0.11 µM, read-out: % Inhibition of anti-CD-28 and Anti-CD3 induced IL-2 by T cells) was 47.3%. For the same molecule, the inhibition at 0.22 µM ([2]; 0.22 µM, read-out: % Inhibition of anti-CD-28 and Anti-CD3 induced IL-2 by T cells) was 106%, the inhibition at 0.44 µM ([2]; 0.44 µM, read-out: % Inhibition of anti-CD-28 and Anti-CD3 induced IL-2 by T cells) was 88.3% and the inhibition at 0.89 µM ([2]; 0.89 µM, read-out: % Inhibition of anti-CD-28 and Anti-CD3 induced IL-2 by T cells) was 98.6%. The inhibition at 1.8 µM ([2]; 1.8 µM, read-out: % Inhibition of anti-CD-28 and Anti-CD3 induced IL-2 by T cells) was 100%, the inhibition at 3.6 µM ([2]; 3.6 µM, read-out: % Inhibition of anti-CD-28 and Anti-CD3 induced IL-2 by T cells) was 100% and the inhibition at 7.1 µM ([2]; 7.1 µM, read-out: % Inhibition of anti-CD-28 and Anti-CD3 induced IL-2 by T cells) was 100%. It also gave an IC50 ([2]; 18 hours, read-out: IC50 for inhibition of anti-CD3 and anti-CD28 induced IL2 production by T cells) of 120 nM, an inhibition at 0.09 µM ([3]; 0.09 µM, read-out: % Inhibition of LPS induced TNF-a by monocytes) of 19% and an inhibition at 0.18 µM ([3]; 0.18 µM, read-out: % Inhibition of LPS induced TNF-a by monocytes) of 32.1%. The inhibition at 0.36 µM ([3]; 0.36 µM, read-out: % Inhibition of LPS induced TNF-a by monocytes) was 48.1%, the inhibition at 0.7 µM ([3]; 0.7 µM, read-out: % Inhibition of LPS induced TNF-a by monocytes) was 57.6% and the inhibition at 1.4 µM ([3]; 1.4 µM, read-out: % Inhibition of LPS induced TNF-a by monocytes) was 73.2%. For the same molecule, the inhibition at 2.9 µM ([3]; 2.9 µM, read-out: % Inhibition of LPS induced TNF-a by monocytes) was 80%, the inhibition at 5.7 µM ([3]; 5.7 µM, read-out: % Inhibition of LPS induced TNF-a by monocytes) was 89% and the IC50 ([3]; 18 hours, read-out: IC50 for inhibition of LPS induced TNF-α secretion by monocytes) was 420 nM. It also gave an IC50 [1, 4] of 340 nM, an inhibition at 0.056 µM ([1]; Homo sapiens, Jurkat E6.1, 0.056 μM, read-out: % Inhibition of anti-CD28 induced IL-2 by PMA pre-treated Jurkat E6-1) of 29% and an inhibition at 0.11 µM ([1]; Homo sapiens, Jurkat E6.1, 0.11 μM, read-out: % Inhibition of anti-CD28 induced IL-2 by PMA pre-treated Jurkat E6-1) of 30.5%. For the same molecule, the inhibition at 0.22 µM ([1]; Homo sapiens, Jurkat E6.1, 0.22 μM, read-out: % Inhibition of anti-CD28 induced IL-2 by PMA pre-treated Jurkat E6-1) was 36%, the inhibition at 0.44 µM ([1]; Homo sapiens, Jurkat E6.1, 0.44 μM, read-out: % Inhibition of anti-CD28 induced IL-2 by PMA pre-treated Jurkat E6-1) was 57.8% and the inhibition at 0.89 µM ([1]; Homo sapiens, Jurkat E6.1, 0.89 μM, read-out: % Inhibition of anti-CD28 induced IL-2 by PMA pre-treated Jurkat E6-1) was 85.4%. The inhibition at 1.8 µM ([1]; Homo sapiens, Jurkat E6.1, 1.8 μM, read-out: % Inhibition of anti-CD28 induced IL-2 by PMA pre-treated Jurkat E6-1) was 92.2%, the inhibition at 3.6 µM ([1]; Homo sapiens, Jurkat E6.1, 3.6 μM, read-out: % Inhibition of anti-CD28 induced IL-2 by PMA pre-treated Jurkat E6-1) was 89.1% and the inhibition at 7.1 µM ([1]; Homo sapiens, Jurkat E6.1, 7.1 μM, read-out: % Inhibition of anti-CD28 induced IL-2 by PMA pre-treated Jurkat E6-1) was 91.5%. The “concentrations at which phosphorylation of the peptide by abl kinase was inhibited” value (recombinant abl kinase) was 0.001 to 5.2 µM, the inhibition at 0.001 µM (recombinant abl kinase; 0.001 μM) was 39% and the inhibition at 0.01 µM (recombinant abl kinase; 0.01 μM) was 56.2%. For the same molecule, the inhibition at 0.081 µM (recombinant abl kinase; 0.081 μM) was 86.3%, the inhibition at 0.65 µM (recombinant abl kinase; 0.65 μM) was 98.6% and the inhibition at 5.2 µM (recombinant abl kinase; 5.2 μM) was 100%. The IC50 (recombinant abl kinase) was 6 nM.

`COC1C(O)c2c(O)cccc2C2=C3CCC(O)c4c(O)ccc(c43)C21` (single isomer, unassigned) [Compound 2a] showed an IC50 [1, 4] of 2960 nM and an IC50 (recombinant abl kinase) greater than 1000 nM.

For `COC1C(O)c2c(O)cccc2C2=C3CCC(O)c4c(O)ccc(c43)C21` (single isomer, unassigned) [Compound 2b], the IC50 (recombinant abl kinase) was greater than 1000 nM.

Molecule `COC1C(O)c2c(O)cccc2C23OC24CCC(=O)c2c(O)ccc(c24)C13` (stereo not drawn) [Compound 3] has an IC50 [1, 4] greater than 9560 nM and an IC50 (recombinant abl kinase) of 700 nM.

`COc1cccc2c1C(O)C(OC)C1C2=C2CCC(=O)c3c(O)ccc1c32` (stereo not drawn) [Compound 4] was tested, and the IC50 [1, 4] was 6640 nM and the IC50 (recombinant abl kinase) was greater than 1000 nM.

`COC1C(O)c2c(O)cccc2C2=C3CCC(NC4CC4)c4c(O)ccc(c43)C21` (stereo not drawn) [Compound 5, 3-Cyclopropylamino-7-methoxy-1,2,3,6b, 7,8-hexahydrobenzo[d]fluoranthen-4,8,9-triol] gave an IC50 [1, 4] of 1280 nM and an IC50 (recombinant abl kinase) greater than 1000 nM.

Work on `COC1C(O)c2c(O)cccc2C2=C3CCC(=NO)c4c(O)ccc(c43)C21` (stereo not drawn) [Compound 7, 4,8,9-Trihydroxy-7-methoxy-1,6b,7,8-tetrahydro-2H-benzo[j]fluoranthen-3-one oxime] yielded an IC50 [1, 4] greater than 1490 nM and an IC50 (recombinant abl kinase) greater than 1000 nM.

For `COC1C(O)c2c(O)cccc2C2=C3CCC(=O)c4c(O)c(Cl)cc(c43)C21` (stereo not drawn) [Compound 8, 5-Chloro-4,8,9-trihydroxy-7-methoxy-1,6b,7,8-tetrahydro-2H-benzo[j]fluoranthen-3-one], the IC50 (recombinant abl kinase) was greater than 1000 nM.

With `CCCOC1c2c(O)cccc2C2=C3CCC(=O)c4c(O)ccc(c43)C2C1OC` (stereo not drawn) [Compound 9, 4,9-Dihydro-7-methoxy-8-propoxy-1,6b,7,8-tetrahydro-2H-benzo[j]fluoranthen-3-one] the IC50 [1, 4] was 10900 nM and the IC50 (recombinant abl kinase) was 132 nM.

In the case of `CCOC1c2c(O)cccc2C2=C3CCC(=O)c4c(O)ccc(c43)C2C1OC` (stereo not drawn) [Compound 10, 8-Ethoxy-4,9-dihydroxy-7-methoxy-1,6b,7,8-tetrahydro-2H-benzo[j]fluoranthen-3-one], the IC50 [1, 4] is reported as 2350 nM and the IC50 (recombinant abl kinase) is reported as 274 nM.

In the case of `CCO[C@@H]1c2c(O)cccc2C2=C3CCC(=O)c4c(O)ccc(c43)[C@@H]2[C@H]1OC` [Compound 10a], the IC50 [1, 4] is reported as greater than 7940 nM and the IC50 (recombinant abl kinase) is reported as greater than 5000 nM.

With `COC1c2c(O)cccc2C2=C3CCC(=O)c4c(O)ccc(c43)C2C1OC` (stereo not drawn) [Compound 11, 4,9-Dihydroxy-7,8-dimethoxy-1,6b,7,8-tetrahydro-2H-benzo[j]fluroanthen-3-one] the IC50 ([1]; PMA pre-treated) was 1060 nM and the IC50 (recombinant abl kinase) was 45 nM.

Work on `COC1C(=O)c2c(O)cccc2C2=C3CCC(=O)c4c(O)ccc(c43)C21` (stereo not drawn) [Compound (II)] yielded an IC50 [1, 4] greater than 5000 nM and an IC50 (recombinant abl kinase) greater than 5000 nM.

For `COC1c2c(O)cccc2C2=C3CCC(=O)c4c(O)ccc(c43)C2C1OC` (stereo not drawn) [Compound (III)], the IC50 ([1]; PMA pre-treated) was 4300 nM.

For `CO[C@H]1[C@@H](O)c2c(O)cccc2C2=C3CCC(=O)c4c(O)ccc(c43)[C@H]21` [Compound (Ib)], the IC50 [1, 4] was 2500 nM.
